# Assay results taken from US20180360803A1, “PHARMACEUTICAL COMPOSITION FOR TREATMENT OR PREVENTION OF NASH” (UBE INDUSTRIES, LTD., priority 2015, published 2018).
# Legend:
# human LPA1 = molecular target: T1, human LPA1 (Homo sapiens, UniProt Q92633); test: Test of LPA1 antagonism ([35S]GTPγS binding, membrane fraction of RH 7777 cells expressing human LPA1); type: biochemical; details: LPA 100 nM, read-out: IC50, concentration required for 50% inhibition of the binding of LPA1 and [35S]GTPγS
# T1 construct: purchased ChanTest A324; host or cells: RH 7777 cells (recombinant expression of human LPA1)
# T1 sequence (Q92633 whole entry): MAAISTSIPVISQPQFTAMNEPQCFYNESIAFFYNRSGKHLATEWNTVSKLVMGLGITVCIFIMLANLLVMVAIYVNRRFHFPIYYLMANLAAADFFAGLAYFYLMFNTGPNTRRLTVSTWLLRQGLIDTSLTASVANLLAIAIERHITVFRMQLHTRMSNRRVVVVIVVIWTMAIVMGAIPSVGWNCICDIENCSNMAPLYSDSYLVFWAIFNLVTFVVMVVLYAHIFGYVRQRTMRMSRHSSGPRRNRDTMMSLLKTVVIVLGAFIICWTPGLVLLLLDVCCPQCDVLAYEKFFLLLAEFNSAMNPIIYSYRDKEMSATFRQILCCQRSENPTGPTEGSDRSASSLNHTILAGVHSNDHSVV
# Protocol: 5 μg of a membrane fraction of RH 7777 cells expressing human LPA1 (A324, ChanTest) was suspended in a reaction buffer (20 mM HEPES, 100 mM NaCl, 10 mM MgCl2, 10 μM GDP, 5 μg saponin, 0.2% BSA, 0.1 nM [^35S]GTPγS (NEG030X, Perkin Elmer), pH 7.4). The test compounds dissolved in DMSO in various concentrations were each added to the suspension. After preincubation at 30° C. for 15 minutes, LPA (L7260, Sigma, final concentration 100 nM) was added, and the suspensions were incubated at 30° C. for 30 minutes. The membrane fractions were collected on a glass fiber filter (GF/B, Whatman) by using a cell harvester (M30, Brandel), and were washed with a 10 mM phosphate buffer (pH 7.4). The radioactivity of the membrane fractions was measured with a liquid scintillation analyzer (2900TR, Packard). The concentration (IC50) of the test compound required for 50% inhibition of the binding of LPA1 and [^35S]GTPγS was determined by non-linear regression analysis using EXSAS (Arm Systex).
# STAM mice (NASH models) = test: Non-alcoholic steatohepatitis (NASH) mouse models (STAM mice); type: in vivo; details: for NAFLD Activity score, compound administered group: 30 mg/kg twice daily orally for 3 weeks, age of six to nine weeks; for reduction in NAFLD activity score (statistical significance): versus vehicle group
# Protocol: STAM (registered trademark) mice (Stelic Institute & Co., Inc.) were used as NASH models. The STAM (registered trademark) mice were prepared by subcutaneously administering 200 μg of streptozotocin (Sigma Aldrich) one time to the back of 2-day old male mice and feeding the mice with a high fat diet (High Fat Diet 32, CLEA Japan, Inc.) from the age of 4 weeks (Medical Molecular Morphology, 46 (2013) pp. 141-152).
# The test compound was orally administered every day from the age of 5 or 6 weeks. At the age of 9 or 10 weeks, bloods and livers were collected under anesthesia. The bloods were subjected to biochemical tests. After the wet weights of the livers were measured, RNA was extracted from portions of the livers, and the expression levels of the inflammation and fibrosis marker genes were measured by the quantitative PCR method. Further, the amounts of hydroxyproline or collagen in the livers were measured. Paraffin sections or frozen sections were prepared from portions of the livers and were subjected to histopathological tests to determine the NAFLD activity scores, the fibrosis areas or the inflammation areas. The results were statistically analyzed using EXSUS (CAC EXICARE CORPORATION) or Prism 4 (GraphPad Software, Inc.).
IC50 (human LPA1) [nM],SMILES,"NAFLD Activity score, compound administered group (STAM mice (NASH models))",reduction in NAFLD activity score (statistical significance) (STAM mice (NASH models))
≤ 100,"Cc1cscc1[C@@H](C)OC(=O)Nc1cc(F)sc1-c1ccc(-c2ccc(C3(C(=O)O)CC3)cc2)cc1 [Production Example 7, (R)-1-{4′-[5-fluoro-3-({[1-(4-methylthiophen-3-yl)ethoxy]carbonyl}amino)thiophen-2-yl]-[1,1′-biphenyl]-4-yl}cyclopropanecarboxylic acid]",–,–
≤ 100,"COc1cc(-c2sc(Cl)cc2NC(=O)O[C@H](C)c2ccccc2)ccc1-c1ccc(C2(C(=O)O)CC2)cc1 [Production Example 6, (R)-1-[4′-(5-chloro-3-{[(1-phenylethoxy)carbonyl]amino}thiophen-2-yl)-2′-methoxy-[1,1′-biphenyl]-4-yl]cyclopropanecarboxylic acid]",2.8 ± 1.0,significant (p<0.05) reduction
–,"COc1cc(-c2sc(Cl)cc2NC(=O)O[C@H](C)c2cc(F)ccc2F)ccc1-c1ccc(C2(C(=O)O)CC2)cc1 [Production Example 9, (R)-1-{4′-[5-chloro-3-({[1-(2,5-difluorophenyl)ethoxy]carbonyl}amino)thiophen-2-yl]-2′-methoxy-[1,1′-biphenyl]-4-yl}cyclopropanecarboxylic acid]",3.1 ± 1.4,significant (p<0.05) reduction
≤ 100,"COc1cc(-c2sc(F)cc2NC(=O)O[C@H](C)c2ccccc2Cl)ccc1-c1ccc(C2(C(=O)O)CC2)cc1 [Production Example 8, (R)-1-{4′-[3-({[1-(2-chloropheny)ethoxy]carbonyl}amino)-5-fluorothiophen-2-yl]-2′-methoxy-[1,1′-biphenyl]-4-yl}cyclopropanecarboxylic acid]",–,–
